Measurements taken from ChEMBL document CHEMBL2417523, “One-pot microwave assisted synthesis of new 2-alkoxycarbonylmethylene-4-oxo-1,5-benzo-, naphtho-, and pyridodiazepines and assessment of their cytogenetic activity” (Eur J Med Chem, 2013).
Activity calls are given as the source filed them. The rule behind the calls is not given here.

What was measured:
[1] = test system: Lymphocyte; experiment: Cytoprotective activity against human lymphocytes assessed as reduction in sister chromatid exchange frequency after 72 hrs by fluorescence/Geimsa method; format: functional, cell-based
[2] = test system: Lymphocyte; experiment: Cytoprotective activity against human lymphocytes assessed as reduction in sister chromatid exchange frequency at 10 uM after 72 hrs by fluorescence/Geimsa method; format: functional, cell-based
[3] = Cytogenetic activity against human lymphocytes assessed as cytostatic activity measured as proliferative rate index at 10 uM after 72 hrs by fluorescence/Geimsa method; format: cell-based; conditions: lymphocyte

Row | Structure (SMILES) | Activity [1] | Activity [2] | Activity [3]
1 | COC(=O)/C=C1/CC(=O)Nc2cc(C)c(C)cc2N1 | Dose-dependent effect | – | –
2 | COC(=O)/C=C1/CC(=O)Nc2cc(Cl)ccc2N1 | Dose-dependent effect | Active | Toxic
3 | COC(=O)/C=C1/CC(=O)Nc2ccccc2N1 | Dose-dependent effect | – | –
